Test results taken from patent US20170044104A1, “NEW PESTICIDAL COMPOUNDS AND USES” (BAYER CROPSCIENCE AG, priority 2013, published 2017).
Like-named read-outs stand apart in the source and are kept apart here.

What was measured:
[1] = test system: Meloidogyne incognita; assay: Meloidogyne incognita (MELGIN) gall formation assay; type: in vivo; details: 336 h, read-out: nematicidal activity (percentage of gall formation)
Experimental: Solvent: 125.0 parts by weight of acetone
To produce a suitable preparation of active compound, 1 part by weight of active compound is mixed with the stated amount of solvent, and the concentrate is diluted with water to the desired concentration.
Vessels are filled with sand, a solution of the active ingredient, a suspension containing eggs and larvae of the southern root-knot nematode (Meloidogyne incognita) and salad seeds. The salad seeds germinate and the seedlings grow. Galls develop in the roots.
After 14 days the nematicidal activity is determined on the basis of the percentage of gall formation. 100% means no galls were found and 0% means the number of galls found on the roots of the treated plants was equal to that in untreated control plants.

[2] = test system: Haemonchus contortus; assay: Haemonchus contortus (HAEMCO) larval mortality assay; details: 120 h; for mortality at 20 ppm: application rate 20 ppm, after 5 days, read-out: activity (percentage of larval mortality); for Emax at 0.8 ppm / Emax at 4 ppm / Emax at 20 ppm: comparative test, 5 dat, read-out: % Efficacy
Experimental: (§1) Solvent: dimethyl sulfoxide
(§2) To produce a suitable preparation of active compound, 10 mg of active compound are dissolved in 0.5 ml solvent, and the concentrate is diluted with “Ringer's solution” to the desired concentration.
Approximately 40 larvae of the red stomach worm (Haemonchus contortus) are transferred into a test tube containing compound solution.
After 5 days percentage of larval mortality are recorded. 100% efficacy means all larvae are killed, 0% efficacy means no larvae are killed.

[3] = test system: Cooperia curticei; assay: Cooperia curticei (COOPCU) larval mortality assay; details: 120 h, after 5 days, read-out: activity (percentage of larval mortality); for mortality at 20 ppm: application rate 20 ppm
Experimental: as §1, §2
Approximately 40 nematode larvae (Cooperia curticei) are transferred into a test tube containing the compound solution.
After 5 days percentage of larval mortality is recorded. 100% efficacy means all larvae are killed; 0% efficacy means no larvae are killed.

[4] = test system: Nippostrongylus brasiliensis; assay: Nippostrongylus brasiliensis (NIPOBR) assay, acetylcholine esterase readout; details: 10 ppm (10 μg/ml), adult worms, read-out: activity (reduction of AChE compared to negative control)
Experimental: Adult Nippostrongylus brasiliensis were washed with saline buffer containing 100 U/ml penicillin, 0.1 mg/ml streptomycin and 2.5 μg/ml amphotericin B. Test compounds were dissolved in DMSO and worms were incubated in medium in a final concentration of 10 μg/ml (10 ppm). An aliquot of the medium was used to determine the acetylcholine esterase activity in comparison to a negative control. The principle of measuring acetylcholine esterase as readout for anthelmintic activity was described in Rapson et al (1986) and Rapson et al (1987).

[5] = application rate 20 ppm, after 14 days, salad seedlings

| Structure (SMILES) | pest or weed control at 20 ppm [1, 5] [%] | mortality at 20 ppm [2] [%] | mortality at 20 ppm [3] [%] | inhibition at 10 ppm [4] [%] | pest or weed control at 20 ppm [1] [%] | Emax at 0.8 ppm [2] [%] | Emax at 4 ppm [2] [%] | Emax at 20 ppm [2] [%] | mortality at 4 ppm ([3]; application rate 4 ppm) [%] |
| --- | --- | --- | --- | --- | --- | --- | --- | --- | --- |
| O=C(NCCc1ccc(-c2cncc(F)c2)cc1)c1cccnc1C(F)(F)F [Example 1-20] | 90 | 80 | 100 |  |  |  |  |  |  |
| O=C(NCC(F)(F)c1ccc(-c2cncc(F)c2)cc1F)c1ccccc1C(F)(F)F [Example 1-111] |  | 100 | 100 | ≥ 60 |  |  |  |  |  |
| O=C(NCC(F)(F)c1ccc(-c2cncc(Cl)c2)cc1Cl)c1ccccc1C(F)(F)F [Example 1-97] |  | 100 | 100 | ≥ 60 |  |  |  |  |  |
| O=C(NCC(F)c1ccc(-c2cncc(Cl)c2)cc1Cl)c1nccnc1C(F)(F)F (stereo not drawn) [Example 1-82] |  | 100 | 100 | ≥ 60 | 100 |  |  |  |  |
| O=C(NCCc1ccc(-c2ccc(Cl)nc2Cl)cc1Cl)c1ccccc1C(F)(F)F [Example 1-49] |  | 90 | 100 | ≥ 60 |  |  |  |  |  |
| O=C(NCCc1ccc(-c2cccnc2)cc1Cl)c1ccccc1C(F)(F)F [Example 1-33] |  | 100 | 100 | ≥ 60 |  |  |  |  |  |
| O=C(NCC(F)(F)c1ccc(-c2ccc(F)nc2)cc1F)c1ccccc1C(F)(F)F [Example 1-106] |  | 100 | 100 | ≥ 60 | 90 |  |  |  |  |
| Cc1ncccc1-c1ccc(CCNC(=O)c2ccccc2C(F)(F)F)c(Cl)c1 [Example 1-42] | 90 | 100 | 100 |  |  |  |  |  |  |
| O=C(NCCc1ccc(-c2cccnc2Cl)cc1Cl)c1ccccc1C(F)(F)F [Example 1-48] |  | 100 | 100 | ≥ 60 | 90 | 80 | 100 | 100 |  |
| O=C(NCC(F)(F)c1ccc(-c2cncc(Cl)c2)cc1F)c1ccccc1C(F)(F)F [Example 1-107] |  | 100 | 100 | ≥ 60 |  |  |  |  |  |
| O=C(NCCc1ccc(-c2cncc(Cl)c2)cc1)c1cccnc1C(F)(F)F [Example 1-16] | 90 | 80 | 100 |  |  |  |  |  |  |
| O=C(NCCc1ccc(-c2cncc(Cl)c2)cc1)c1ccccc1C(F)(F)F [Example 1-53] |  | 100 | 100 | ≥ 60 |  |  |  |  |  |
| O=C(NCCc1cccc(-c2ccc(OCC(F)(F)F)nc2)c1)c1ccccc1C(F)(F)F [Example 1-1] |  | 80 | 80 | ≥ 60 |  |  |  |  |  |
| O=C(NCCc1ccc(-c2cncc(Cl)c2)cc1Cl)c1ccccc1C(F)(F)F [Example 1-45, N-{2-[2-chloro-4-(5-chloropyridin-3-yl)phenyl]ethyl}-2-(trifluoromethyl)benzamide] |  | 100 | 100 | ≥ 60 |  | 100 | 100 | 100 |  |
| O=C(NCC(F)c1ccc(-c2cccnc2Cl)cc1Cl)c1cccnc1C(F)(F)F (stereo not drawn) [Example 1-80] | 90 | 100 | 100 |  |  |  |  |  |  |
| O=C(NCC(F)(F)c1ccc(-n2cc(C(F)(F)F)cn2)cc1Cl)c1ccccc1C(F)(F)F [Example 1-69, N-[2-[2-chloro-4-[4-(trifluoromethyl)pyrazol-1-yl]phenyl]-2,2-difluoro-ethyl]-2-(trifluoromethyl)benzamide] |  | 100 | 100 | ≥ 60 | 100 | 100 | 100 | 100 |  |
| O=C(NCC(F)(F)c1ccc(-c2ccc(Cl)nc2)cc1C(F)(F)F)c1ccccc1C(F)(F)F [Example 1-126] | 90 | 100 | 100 |  |  |  |  |  |  |
| O=C(NCC(F)(F)c1ccc(-c2ccc(F)nc2)cc1C(F)(F)F)c1ccccc1C(F)(F)F [Example 1-128] | 100 | 100 | 100 |  |  |  |  |  |  |
| O=C(NCC(F)(F)c1ccc(-c2ccc(C(F)(F)F)nc2)cc1Cl)c1ccccc1C(F)(F)F [Example 1-94] | 100 | 100 | 100 |  |  |  |  |  |  |

| Structure (SMILES) | pest or weed control at 20 ppm [1, 5] [%] | mortality at 20 ppm [2] [%] | mortality at 20 ppm [3] [%] | inhibition at 10 ppm [4] [%] | pest or weed control at 20 ppm [1] [%] | Emax at 0.8 ppm [2] [%] | Emax at 4 ppm [2] [%] | Emax at 20 ppm [2] [%] | mortality at 4 ppm ([3]; application rate 4 ppm) [%] |
| --- | --- | --- | --- | --- | --- | --- | --- | --- | --- |
| Cn1cc(-c2ccc(CCNC(=O)c3cccnc3C(F)(F)F)cc2)cn1 [Example 1-24] | 90 |  | 90 |  |  |  |  |  |  |
| O=C(NCC(F)c1ccc(-c2ccc(Cl)nc2)cc1Cl)c1cccnc1C(F)(F)F (stereo not drawn) [Example 1-86] | 100 | 100 | 100 |  |  |  |  |  |  |
| O=C(NCC(F)(F)c1ccc(-c2cncc(Cl)c2)cc1C(F)(F)F)c1ccccc1C(F)(F)F [Example 1-120] | 100 | 100 | 100 |  |  |  |  |  |  |
| O=C(NCC(F)c1ccc(-c2ccc(F)nc2)cc1Cl)c1nccnc1C(F)(F)F (stereo not drawn) [Example 1-87] |  | 100 | 100 | ≥ 60 | 100 |  |  |  |  |
| Cn1cc(-c2ccc(CCNC(=O)c3ccccc3C(F)(F)F)c(Cl)c2)cn1 [Example 1-47] | 100 | 100 | 100 |  |  | 80 | 100 | 100 |  |
| O=C(NCC(F)c1ccc(-c2cccnc2Cl)cc1Cl)c1ccccc1C(F)(F)F (stereo not drawn) [Example 1-75] |  | 100 | 100 | ≥ 60 |  |  |  |  |  |
| O=C(NCC(F)c1ccc(-c2ccc(F)nc2)cc1Cl)c1cccnc1C(F)(F)F (stereo not drawn) [Example 1-88] |  | 100 | 100 | ≥ 60 | 100 |  |  |  |  |
| O=C(NCC(F)(F)c1ccc(-c2ccc(Cl)nc2)cc1Cl)c1ccccc1C(F)(F)F [Example 1-68] |  | 100 | 100 | ≥ 60 | 90 |  |  |  |  |
| O=C(NCCc1ccc(-c2ccccn2)cc1Cl)c1ccccc1C(F)(F)F [Example 1-39] | 100 | 100 | 100 |  |  |  |  |  |  |
| O=C(NCC(F)(F)c1ccc(-c2cc(Cl)nc(Cl)c2)cc1Cl)c1ccccc1C(F)(F)F [Example 1-92] |  | 100 | 100 | ≥ 60 |  |  |  |  |  |
| O=C(NCC(F)(F)c1ccc(-c2ccc(F)nc2)cc1Cl)c1cccnc1C(F)(F)F [Example 1-104] | 100 | 90 |  |  |  |  |  |  | 100 |
| O=C(NCCc1ccc(-c2cncc(F)c2)cc1Cl)c1ccccc1C(F)(F)F [Example 1-37] |  | 100 | 100 | ≥ 60 | 90 | 100 | 100 | 100 |  |
| O=C(NCCc1ccc(-c2ccc(Cl)nc2)cc1Cl)c1ccccc1C(F)(F)F [Example 1-66] | 90 | 100 | 100 |  |  |  |  |  |  |
| O=C(NCCc1cccc(-c2ccc(Cl)nc2)c1)c1ccccc1C(F)(F)F [Example 1-9] |  |  | 100 | ≥ 60 |  |  |  |  |  |
| COc1ccc(-c2ccc(C(F)(F)CNC(=O)c3ccccc3C(F)(F)F)c(Cl)c2)cn1 [Example 1-90] |  | 100 | 100 | ≥ 60 |  |  |  |  |  |
| O=C(NCC(F)c1ccc(-c2ccnc(F)c2)cc1Cl)c1cccnc1C(F)(F)F (stereo not drawn) [Example 1-81] | 100 | 100 | 100 |  |  |  |  |  |  |
| O=C(NCC(F)c1ccc(-c2ccc(Cl)nc2)cc1Cl)c1nccnc1C(F)(F)F (stereo not drawn) [Example 1-85] | 100 | 100 | 100 |  |  |  |  |  |  |
| O=C(NCC(F)(F)c1ccc(-c2cncc(F)c2)cc1Cl)c1ccccc1C(F)(F)F [Example 1-96] |  | 100 | 100 | ≥ 60 |  |  |  |  |  |
| CC(F)(CNC(=O)c1cccnc1C(F)(F)F)c1ccc(-c2cncc(F)c2)cc1Cl (stereo not drawn) [Example 1-98] |  | 100 | 100 | ≥ 60 |  |  |  |  |  |
